Measured values from patent US8163935B2, “Fused heterocyclic compounds” (Takeda Pharmaceutical Company Limited, priority 2005, dated 2012).

melting point [°C]	SMILES
159 to 162	CCC(CC)c1ccc(-c2ccco2)c2nc(Oc3ccc(Cl)cc3Br)n(C)c12 [Example 149, 2-(2-Bromo-4-chlorophenoxy)-7-(1-ethylpropyl)-4-(2-furyl)-1-methyl-1H-benzimidazole]
136 to 137	CCC(CC)c1ccc(C#N)c2nc(Oc3ccc(Cl)cc3Br)n(C)c12 [Example 150, 2-(2-Bromo-4-chlorophenoxy)-7-(1-ethylpropyl)-1-methyl-1H-benzimidazole-4-carbonitrile]
192	CCC(CC)c1ccc(C#N)c2nc(Oc3c(C)cc(Cl)cc3Cl)n(C)c12 [Example 151, 2-(2,4-Dichloro-6-methylphenoxy)-7-(1-ethylpropyl)-1-methyl-1H-benzimidazole-4-carbonitrile]
223 to 225	CCC(CC)c1ccc(C#N)c2nc(Nc3c(C)cc(Cl)cc3OC)n(C)c12 [Example 152, 2-[(4-Chloro-2-methoxy-6-methylphenyl)amino]-7-(1-ethylpropyl)-1-methyl-1H-benzimidazole-4-carbonitrile]
177 to 178	CCC(CC)c1ccc(C(=O)OC)c2nc(Oc3c(C)cc(Cl)cc3Cl)n(C)c12 [Example 153, Methyl 2-(2,4-dichloro-6-methylphenoxy)-7-(1-ethylpropyl)-1-methyl-1H-benzimidazole-4-carboxylate]
141 to 143	CCC(CC)c1ccc(CO)c2nc(Oc3c(C)cc(Cl)cc3Cl)n(C)c12 [Example 154, [2-(2,4-Dichloro-6-methylphenoxy)-7-(1-ethylpropyl)-1-methyl-1H-benzimidazol-4-yl]methanol]
107 to 108	CCC(CC)c1ccc(CN2CCCC2)c2nc(Oc3c(C)cc(Cl)cc3Cl)n(C)c12 [Example 156, 2-(2,4-Dichloro-6-methylphenoxy)-7-(1-ethylpropyl)-1-methyl-4-(pyrrolidin-1-ylmethyl)-1H-benzimidazole]

More lines, now with the values behind:

SMILES	melting point [°C]
CCC(CC)c1ccc(Cl)c2nc(Oc3c(Cl)cc(OC(F)(F)F)cc3Cl)n(C)c12 [Example 140, 4-Chloro-2-[2,6-dichloro-4-(trifluoromethoxy)phenoxy]-7-(1-ethylpropyl)-1-methyl-1H-benzimidazole]	145 to 147
CCC(CC)c1ccc(Cl)c2nc(Oc3c(N(C)C)cc(C)nc3C)n(C)c12 [Example 141, 3-{[4-Chloro-7-(1-ethylpropyl)-1-methyl-1H-benzimidazol-2-yl]oxy}-N,N,2,6-tetramethylpyridin-4-amine]	175 to 177
CCC(CC)c1ccc(Cl)c2nc(Oc3c(Cl)cc(N(C)C)cc3Cl)n(C)c12 [Example 142, 3,5-Dichloro-4-{[4-chloro-7-(1-ethylpropyl)-1-methyl-1H-benzimidazol-2-yl]oxy}-N,N-dimethylaniline]	200 to 202
CCC(CC)c1ccc(Cl)c2nc(Oc3c(Cl)cc(Cl)cc3C(=O)N(C)C)n(C)c12 [Example 143, 3,5-Dichloro-2-{[4-chloro-7-(1-ethylpropyl)-1-methyl-1H-benzimidazol-2-yl]oxy}-N,N-dimethylbenzamide]	141 to 143
CCC(CC)c1ccc(Cl)c2nc(Oc3c(C)cc(Cl)cc3OC)n(C)c12 [Example 144, 4-Chloro-2-(4-chloro-2-methoxy-6-methylphenoxy)-7-(1-ethyl-1-propyl)-1-methyl-1H-benzimidazole]	165 to 167
CCC(CC)c1ccc(OC)c2nc(Oc3ccc(Cl)cc3Br)n(C)c12 [Example 146, 2-(2-Bromo-4-chlorophenoxy)-7-(1-ethylpropyl)-4-methoxy-1-methyl-1H-benzimidazole]	106 to 107
CCC(CC)c1ccc(O)c2nc(Oc3ccc(Cl)cc3Br)n(C)c12 [Example 147, 2-(2-Bromo-4-chlorophenoxy)-7-(1-ethylpropyl)-1-methyl-1H-benzimidazol-4-ol]	175 to 177
